Measured values: patent EP4653017A1, “ANTIBODY-DRUG CONJUGATE AND USE THEREOF” (Tyligand Bioscience (Shanghai) Limited, priority 2023, dated 2024)
Structures can show the parent of a compound that is named as a salt. Where two headings read alike, the source gives them in different places.

Tests used:
[1] = tested on: THP-1 cells; assay: Activation of IFN-β secretion by THP-1 cells (IFN-beta ELISA); assay type: cell-based, human; details: for EC50: read-out: THP-1 activity; for STING agonist activity (in words): EC50 stronger than 2',3'-cGAMP, comparable to ADU-S100
[2] = tested on: CT26 cells; assay: Inhibition of CT26 cell proliferation (CellTiter-Glo); assay type: cell-based, mouse; details: for IC50: read-out: CT-26 activity; for inhibitory ability on growth of CT26 tumor cells in vitro (in words): superior to ADU-S100
Experimental: CT26 cells are a mouse colorectal cancer cell line. In this experiment, CellTiter-Glo Luminescence Cell Viability Assay kit from Promega was used to assess the inhibitory activity of the compounds on CT26 cell proliferation.
When CT26 cells (ATCC #CRL-2638) were revived, the cryovial was rapid shaken in a 37°C water bath to thaw with 1 min. The thawed cell suspension was mixed well with DMEM medium (GE Company, Cat. No. #SH30243.01) containing 10% FBS (GIBCO, Cat. No. #10099-141), centrifuged at 1000 rpm for 5 min, and the supernatant was discarded. The cell pellet was resuspended in 5 mL of complete medium (DMEM medium containing 10% FBS), placed in a cell culture flask with a bottom area of 25 cm^2, and cultured in a cell incubator at 37°C, 5% CO2, and 95% humidity. Passage was performed when the confluence rate of cells reached 70%~80%. Referring to the cell passage method at plating, all cells in the flask were transferred to a 15 mL centrifuge tube, centrifuged at 1000 rpm for 5 minutes, and the supernatant was discarded. The cell pellet was resuspended in 5 mL of new complete medium, 1 mL was placed in a cell culture flask with a bottom area of 25 cm^2, and 4 mL of fresh complete medium was added to continue the culture. Plating was performed when the cell confluence rate of cells reached 70% to 80% again. Referring to the cell passage method at plating, 1/5 of the cell suspension was maintained and the remaining 4/5 of the cell suspension was placed in a 15 mL centrifuge tube. The cells were centrifuged, the old medium was discarded, the cells was washed once with DMEM medium (without serum), and centrifuged to remove the supernatant. Cells were resuspended with DMEM medium (without serum). […]. A cell suspension at a density of 1.1 x 10^4 viable cells/mL was prepared using DMEM medium (without serum) and 90 µL of the cell suspension was added to 96-well clear flat-bottom black-walled cell culture plate wells (Corning, Cat. No. #3603) to yield a cell density of 1000 viable cells/well in the plate. A control group without cells, without compounds, and with complete medium only (i.e., culture medium control) was set up, and a control group without compounds and with cells (i.e., cell control) was set up. The plates were incubated overnight in a cell incubator.
A DMSO stock solution of 10 mM compound was first serially diluted at a 3.16-fold dilution ratio with DMSO (Sigma, Cat. No. #D2650) to a ninth concentration and a tenth concentration of DMSO control without compound was set. DMSO solutions containing different concentrations of the compound were then diluted a 10-fold dilution ratio with PBS (Solarbio company, Cat. No. #P1020) to achieve a DMSO content of 10% in each concentration of the compound solution. Finally, 10 µL of the above solution was added to the corresponding cell culture plate to achieve a starting concentration of 100 µM compound, a 3.16-fold dilution ratio of adjacent concentrations, and a DMSO content of 1% in the cell culture plate. The plates were maintained in a cell incubator for an additional 120 hours.
After 120 hours, the CellTiter-Glo reagent (Promega, Cat. No. #G7572) was thawed and the plate was equilibrated at room temperature for 30 min. Then, 100 µL CellTiter-Glo was added to each well of the plate and shaken on an orbital shaker for 5 min to fully lyse the cells. The plate was placed at room temperature for 20 min to stabilize the cold light signal, and the cold light value of each well was scanned with a multifunctional microplate reader (Molecular Devices, Spectramax M3) at full wavelength.
The compound of the present invention and ADU-S100 (MCE, Cat. No. #HY12885A) were used as controls: Clofarabine (Wuhu Huaren Technology, Cat. No. #HR-00701002), Cladribine (CSNpharm, Cat. No. #CSN10004), Gemcitabine Hydrochloride (Shaoyuan, Cat. No. #SY014538), Gemcitabine Prodrug LY2334737 (home-made). […]

[3] = tested on: CT26 cells; assay: CT26 syngeneic mouse bilateral transplanted tumor model; assay type: in vivo, BALB/c mice; details: for growth inhibition rates of left tumors: left (untreated) tumor, 50 µg compound/mouse (2.5 mg/kg) intratumorally into right flank on days 0 and 4, day 13 after treatment; for tumor growth inhibition rate: right (treated) tumor, 50 µg compound/mouse (2.5 mg/kg) intratumorally on days 0 and 4, 13 days post treatment
Experimental: When tumors grew to an average volume of 100 mm^3, treatments were randomized and started based on tumor size and mouse body weight. The first day of dosing was Day 0. Two doses were administered, 50 µg compound/mouse (i.e., 2.5 mg/kg) was injected intratumorally into the right flank on days 0 and 4, and the same volume of PBS (Hyclone Company, Cat. No. #SH30258.01) was used as a control. The left tumor was left untreated. Control mice were sacrificed after 13 days of dosing and treated mice were sacrificed 21 days later. During the experiment, the tumor volume and body weight were measured three times a week on the left and right sides, and the tumor volume was calculated as V = D × d × d/2 (wherein D represents the long diameter of the tumor and d represents the short diameter of the tumor).

[4] = tested on: Daudi; assay: Inhibition of tumor cell line proliferation (Table 3), Daudi; assay type: cell-based; details: Human Burkitt's lymphoma cells
[5] = tested on: SK-MEL5; assay: Inhibition of tumor cell line proliferation (Table 3), SK-MEL5; assay type: cell-based; details: SK-MEL-5; SK-MEL5, Human melanoma cells
[6] = tested on: FaDu; assay: Inhibition of tumor cell line proliferation (Table 3), FaDu; assay type: cell-based; details: Human pharyngeal squamous carcinoma cell
[7] = tested on: A375; assay: Inhibition of tumor cell line proliferation (Table 3), A375; assay type: cell-based; details: A-375; A375, Human melanoma cells
[8] = tested on: 4T1; assay: Inhibition of tumor cell line proliferation (Table 3), 4T1; assay type: cell-based; details: 4T1, Mouse breast cancer cells
[9] = tested on: H22; assay: Inhibition of tumor cell line proliferation (Table 3), H22; assay type: cell-based; details: H22, Mouse hepatoma cells
[10] = tested on: B16F10; assay: Inhibition of tumor cell line proliferation (Table 3), B16F10; assay type: cell-based; details: B16-F10; B16F10, Mouse melanoma cells
[11] = tested on: A20; assay: Inhibition of tumor cell line proliferation (Table 3), A20; assay type: cell-based; details: A20, Mouse B lymphoma cells
[12] = tested on: MC38; assay: Inhibition of tumor cell line proliferation (Table 3), MC38; assay type: cell-based; details: MC-38; MC38, Mouse colon cancer cells
[13] = IFN-β secretion, 24 hours incubation, ELISA
[14] = Mus musculus, CT26, 120 hours incubation, CellTiter-Glo

Nc1nc2c(ncn2[C@@H]2O[C@@H]3CO[P@](=O)(S)O[C@H]4[C@H](F)[C@H](n5cnc6c(N)nc(Cl)nc65)O[C@@H]4CO[P@@](=O)(S)O[C@@H]2[C@@H]3O)c(=O)[nH]1 [CDN-7, (2',3')-cyclo-(Rp,Sp)-[2'-O-thiophosphodiester-guanosine]-[3'-O-thiophosphodiester-2-chloro-2'-deoxy-2'-fluoro-beta-adenosine]diammonium salt]
EC50 ([1]; Homo sapiens, THP-1, 24 h): 10.1 to 100 µM

CNc1nc(N)c2ncn([C@@H]3O[C@@H]4CO[P@@](=O)(S)O[C@@H]5[C@H](O)[C@@H](CO[P@@](=O)(S)O[C@H]4[C@@H]3F)O[C@H]5n3cnc4c(=O)[nH]c(N)nc43)c2n1 [CDN-8, (2',3')-cyclo-(Rp,Rp) - [2'-O-thiophosphodiester-guanosine]-[3'-O-thiophosphodiester-2-methylamino-2'-deoxy-2'-fluoro-beta-adenosine] diammonium salt]
STING agonist activity (in words) [1]: significant STING agonist activity | EC50 ([1]; Homo sapiens, THP-1, 24 h): 1 to 10 µM | IC50 ([2]; Mus musculus, CT26, 120 h): 1 to 10 µM | inhibitory ability on growth of CT26 tumor cells in vitro (in words) [2]: particularly significant inhibitory ability

Nc1nc2c(ncn2C2OC3COP(=O)(S)OC4CC(n5cnc6c(N)ncnc65)OC4COP(=O)(S)OC3C2O)c(=O)[nH]1 (stereo not shown) [CDN-12]
STING agonist activity (in words) [1]: significant STING agonist activity | EC50 ([1]; Homo sapiens, THP-1, 24 h): 1 to 10 µM

(2',3')-cyclo-(Rp,Rp)-[2'-O-dithiophosphodiester-guanosine]-[3'-O-dithiophosphate diester -2-amino-3-methoxy-adenosine]diammonium salt [CDN-1]
EC50 [1, 13]: 10.1 to 100 µM | inhibitory ability on growth of CT26 tumor cells in vitro (in words) [2]: particularly significant inhibitory ability

N.N.Nc1nc2c(ncn2C2OC3COP(=O)(S)OC4C(COP(=O)(S)OC2C3O)OC(n2cnc3c(N)nc(F)nc32)C4O)c(=O)[nH]1 (stereo not shown) [CDN-2, (2',3')-cyclo-(Rp,Rp)-[2'-O-thiophosphodiester-guanosine]-[3'-O-thiophosphodiester-2-fluoro-adenosine]diammonium salt]
STING agonist activity (in words) [1]: significant STING agonist activity | EC50 [1, 13]: 1 to 10 µM | inhibitory ability on growth of CT26 tumor cells in vitro (in words) [2]: particularly significant inhibitory ability

(3',3')-cyclo-(Rp,Rp)-[3'-O-thiophosphodiester-guanosine]-[3'-O-thiophosphodiester-2-chloro-2'-deoxy-adenosine]diammonium salt [CDN-6]
growth inhibition rates of left tumors [3]: 67.4% | tumor growth inhibition rate [3]: 99.5% | STING agonist activity (in words) [1]: significant STING agonist activity | EC50 [1, 13]: 1 to 10 µM | IC50 ([2]; 120 hours incubation, CellTiter-Glo): 1 to 10 µM | inhibitory ability on growth of CT26 tumor cells in vitro (in words) [2]: particularly significant inhibitory ability

Nc1nc2c(ncn2[C@@H]2O[C@@H]3CO[P@@](=O)(S)O[C@H]4[C@H](F)[C@H](n5cnc6c(N)nc(Cl)nc65)O[C@@H]4CO[P@@](=O)(S)O[C@H]3[C@H]2O)c(=O)[nH]1 [CDN-5, (3',3')-cyclo-(Rp,Rp)-[3'-O-thiophosphodiester-guanosine]-[3'-O-thiophosphodiester-2-chloro-2'-deoxy-2'-fluoro-beta-adenosine]diammonium salt]
growth inhibition rates of left tumors [3]: 71.7% | STING agonist activity (in words) [1]: significant STING agonist activity | EC50 ([1]; Homo sapiens, THP-1, 24 h): 1 to 10 µM | IC50 ([2]; Mus musculus, CT26, 120 h): 1 to 10 µM | inhibitory ability on growth of CT26 tumor cells in vitro (in words) [2]: particularly significant inhibitory ability

Nc1nc(Cl)nc2c1ncn2[C@H]1C[C@H](O)[C@@H](CO)O1 [Cladribine, cladribine, reference compound]
IC50 [2, 14]: < 1 µM

Nc1nc2c(ncn2C2OC3COP(=O)(S)OC4C(COP(=O)(S)OC2C3O)OC(n2cnc3c(N)ncnc32)C4F)c(=O)[nH]1 (stereo not shown) [CDN-11]
STING agonist activity (in words) [1]: significant STING agonist activity | EC50 ([1]; Homo sapiens, THP-1, 24 h): 1 to 10 µM

Nc1ccn([C@@H]2O[C@H](CO)[C@@H](O)C2(F)F)c(=O)n1 [Gemcitabine, Gemcitabine Hydrochloride, reference compound]
IC50 [2, 14]: < 1 µM

Nc1nc2c(ncn2[C@@H]2O[C@@H]3CO[P@@](=O)(S)O[C@H]4C[C@H](n5cnc6c(N)nc(Cl)nc65)O[C@@H]4CO[P@@](=O)(S)O[C@@H]2[C@@H]3O)c(=O)[nH]1 [CDN-4, (2',3')-cyclo-(Rp,Rp)-[2'-O-thiophosphodiester-guanosine]-[3'-O-thiophosphodiester-2-chloro-2'-deoxy-adenosine]diammonium salt]
growth inhibition rates of left tumors [3]: 75.3% | STING agonist activity (in words) [1]: significant STING agonist activity | EC50 ([1]; Homo sapiens, THP-1, 24 h): 1 to 10 µM | IC50 ([2]; Mus musculus, CT26, 120 h): 1 to 10 µM | inhibitory ability on growth of CT26 tumor cells in vitro (in words) [2]: particularly significant inhibitory ability

Nc1nc(Cl)nc2c1ncn2[C@@H]1O[C@H](CO)[C@@H](O)[C@@H]1F [Clofarabine, clofarabine, reference compound]
IC50 [2, 14]: < 1 µM

Nc1ncnc2c1ncn2[C@@H]1O[C@@H]2CO[P@@](=O)(S)O[C@@H]3[C@H](O)[C@@H](CO[P@@](=O)(S)O[C@H]2[C@H]1O)O[C@H]3n1cnc2c(N)ncnc21 [ADU-S100, reference compound]
IC50 [4]: > 10 µM | IC50 [5]: > 10 µM | IC50 [6]: > 10 µM | IC50 [7]: > 10 µM | growth inhibition rates of left tumors [3]: 64.2% | tumor growth inhibition rate [3]: 99.1% | EC50 ([1]; Homo sapiens, THP-1, 24 h): 1 to 10 µM | IC50 [8]: > 10 µM | IC50 [9]: > 10 µM | IC50 [10]: > 10 µM | IC50 [11]: 5.3 µM | IC50 ([2]; Mus musculus, CT26, 120 h): > 10 µM | IC50 [12]: > 10 µM
